Counter-ions that a name gives are not always drawn.
First: N#C[C@@]1(c2cncc(Br)c2)C[C@H]2CC[C@@H](C1)N2
Second: N#C[C@@]1(c2cncc(Br)c2)C[C@H]2C=C[C@@H](C1)N2
The melting point of the first is lower: 128 to 130 °C for the first, 152 to 153 °C for the second.

Compared with N#C[C@@]1(c2cncc(Br)c2)C[C@H]2CC[C@@H](C1)N2 (as salt: TFA), CC(C)(C)OC(=O)N1[C@@H]2CC[C@H]1C[C@](C#N)(c1cncc(Br)c1)C2 is lower in melting point: 176 to 178 °C for the first, 125 to 127 °C for the second.

First: N#C[C@@]1(c2cncc(I)c2)C[C@H]2C=C[C@@H](C1)N2C1COC1
Second: N#C[C@@]1(c2cncc(F)c2)C[C@H]2C=C[C@@H](C1)N2C1CCC1
The melting point of the first is higher: 170 to 171 °C for the first, 91 to 93 °C for the second.
